In patent publication US8153596B2, “Use of SH2 STAT3/STAT1 peptidomimetics as anticancer drugs” (University of South Florida, priority 2006, dated 2012):
Values joined by “and” are separate entries in the source; they are usually repeats but may differ in a detail not shown here. Identical values can stand only once. Like-named read-outs stand apart in the source and are kept apart here.

What was measured:
[1] = test system: v-Src transformed fibroblasts; details: constitutively active STAT3-dependant v-Src transformed fibroblasts; cited from earlier work
STAT1:STAT1 = molecular target: T1, STAT1:STAT1 (Homo sapiens, UniProt P42224); test: EMSA of STAT1:STAT1 dimer DNA binding, nuclear extracts preincubated with peptidomimetic, radiolabeled hSIE probe; format: biochemical
T1 construct: Nuclear extracts containing active STAT1 and STAT3 were preincubated with or without peptidomimetics; endogenous in cells; host or cells: nuclear extracts
T1 sequence (P42224 2-750 limits assumed): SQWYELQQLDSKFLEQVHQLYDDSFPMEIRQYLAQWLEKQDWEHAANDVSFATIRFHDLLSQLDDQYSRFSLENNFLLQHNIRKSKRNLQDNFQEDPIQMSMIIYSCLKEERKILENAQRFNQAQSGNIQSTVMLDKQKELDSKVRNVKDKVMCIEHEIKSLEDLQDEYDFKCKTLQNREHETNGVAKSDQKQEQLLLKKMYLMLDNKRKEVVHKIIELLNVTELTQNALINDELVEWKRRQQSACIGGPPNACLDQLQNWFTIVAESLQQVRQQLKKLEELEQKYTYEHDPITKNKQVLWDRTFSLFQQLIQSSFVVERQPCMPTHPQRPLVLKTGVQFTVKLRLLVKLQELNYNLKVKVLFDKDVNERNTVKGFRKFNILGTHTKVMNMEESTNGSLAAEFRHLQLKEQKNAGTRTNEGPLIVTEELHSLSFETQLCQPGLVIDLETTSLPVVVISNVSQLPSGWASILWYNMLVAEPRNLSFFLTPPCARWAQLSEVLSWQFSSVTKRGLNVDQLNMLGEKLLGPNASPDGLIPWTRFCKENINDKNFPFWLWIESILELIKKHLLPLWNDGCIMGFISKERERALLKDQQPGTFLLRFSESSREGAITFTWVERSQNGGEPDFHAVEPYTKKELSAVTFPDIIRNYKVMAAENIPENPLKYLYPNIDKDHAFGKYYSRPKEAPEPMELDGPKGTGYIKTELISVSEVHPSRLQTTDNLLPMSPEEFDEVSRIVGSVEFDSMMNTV
Protocol: (§1) Evaluation was carried out through pre-incubation of specific concentrations of peptidomimetics with nuclear extracts containing STAT1 and STAT3 for 30 minutes at room temperature before incubation with radiolabeled hSIE oligonucleotide probes and ESMA analysis. Standard peptide synthetic procedures using HBTU and DIPEA were employed to furnish the library of functionalized inhibitors.
as §1

STAT3:STAT3 = molecular target: T2, STAT3:STAT3 (Homo sapiens, UniProt P40763); test: EMSA of STAT3:STAT3 dimer DNA binding, nuclear extracts preincubated with peptidomimetic, radiolabeled hSIE probe; format: biochemical
T2 construct: Nuclear extracts containing active STAT1 and STAT3 were preincubated with or without peptidomimetics; endogenous in cells; host or cells: nuclear extracts
Protocol: as §1, §1

T2 sequence (P40763 2-770 limits assumed, species assumed): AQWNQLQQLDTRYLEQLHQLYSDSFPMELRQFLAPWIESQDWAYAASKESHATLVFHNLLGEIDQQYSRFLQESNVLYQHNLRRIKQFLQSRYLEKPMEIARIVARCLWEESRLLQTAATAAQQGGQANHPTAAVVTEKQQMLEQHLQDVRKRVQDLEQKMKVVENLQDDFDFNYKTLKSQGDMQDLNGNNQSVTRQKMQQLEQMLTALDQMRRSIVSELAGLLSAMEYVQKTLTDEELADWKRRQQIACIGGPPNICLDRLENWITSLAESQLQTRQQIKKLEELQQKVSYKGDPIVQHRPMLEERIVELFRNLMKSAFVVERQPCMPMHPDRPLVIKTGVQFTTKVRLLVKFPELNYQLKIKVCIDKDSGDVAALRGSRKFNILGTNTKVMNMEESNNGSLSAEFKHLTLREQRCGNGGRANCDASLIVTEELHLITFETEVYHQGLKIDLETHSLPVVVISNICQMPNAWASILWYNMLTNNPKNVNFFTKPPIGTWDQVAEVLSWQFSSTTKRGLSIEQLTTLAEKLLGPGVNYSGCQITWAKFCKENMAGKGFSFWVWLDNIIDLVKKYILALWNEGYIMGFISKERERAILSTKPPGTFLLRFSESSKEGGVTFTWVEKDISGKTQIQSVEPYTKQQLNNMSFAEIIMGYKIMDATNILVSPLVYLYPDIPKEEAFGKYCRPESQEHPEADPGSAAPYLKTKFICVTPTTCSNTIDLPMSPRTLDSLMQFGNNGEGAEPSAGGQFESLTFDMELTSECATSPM

Row | IC50 (STAT1:STAT1; nuclear extracts preincubated 30 min at room temperature, hSIE probe, EMSA, means of three experiments, read-out: STAT1:STAT1 IC50 values) | IC50 (STAT3:STAT3; nuclear extracts preincubated 30 min at room temperature, hSIE probe, EMSA, means of three experiments, read-out: STAT3:STAT3 IC50 values) [µM] | SMILES | cell growth suppression [1] | IC50 (STAT1:STAT1) [µM] | IC50 (STAT3:STAT3) [µM]
1 |  |  | CC(C)CC(NC(=O)C(Cc1ccc(OP(=O)(O)O)cc1)NC(=O)c1ccc(C#N)cc1)C(=O)O (stereo not shown) [ISS610] | suppress cell growth significantly |  | 
2 | 1.4 µM and 1 µM | 560 | COc1cccc(NC(=O)[C@H](CC(C)C)NC(=O)[C@H](Cc2ccc(OP(=O)(O)O)cc2)NC(=O)c2ccc(C#N)cc2)c1 [ISS840] |  |  | 
3 |  |  | CC(C)CC(NC(=O)C(Cc1ccc(OP(=O)(O)O)cc1)NC(=O)c1ccc(C#N)cc1)C(=O)NC1CCCCC1 (stereo not shown) [ISS836] |  | 25 | 605
4 |  |  | CC(C)CC(NC(=O)C(Cc1ccc(OP(=O)(O)O)cc1)NC(=O)c1ccc(C#N)cc1)C(=O)NC(C)C (stereo not shown) [ISS834] |  | 21 | 760
